Where two headings read alike, the source gives them in different places. Each block holds one compound with its values, some of them ahead of it.
Tests used:
mGlu1 receptor = mGlu1 receptor (Rattus norvegicus, UniProt P23385); test: [3H]Compound A binding to rat brain membranes (cortex, hippocampus, striatum, cerebellum); settings: tested up to 30 μM
Protocol: Tissue preparation. Male Wistar rats (˜200 g) were sacrificed by decapitation. The brains were rapidly removed and cortex, hippocampus, striatum and cerebellum were immediately dissected. The fresh tissue was homogenized with an Ultra Turrax in 20 volumes of 50 mM Tris-HCl, pH 7.4 and tissue was centrifuged at 23,500 g for 10 min. After homogenisation using a DUAL homogeniser, membranes were washed twice by centrifugation at 23,500 g for 10 min. The final pellet was suspended in 10 volumes of 50 mM Tris-HCl, pH 7.4 and frozen at −80° C.
In vitro binding assay. After thawing, membranes from rat cortex, cerebellum, striatum and hippocampus were rehomogenized using a DUAL and suspended in ice-cold binding buffer containing 50 mM Tris-HCl, 1.2 mM MgCl2, 2 mM CaCl2, pH 7.4. The binding assay was carried out in a total volume of 0.5 ml containing 2.5 nM [^3H]Compound A and a membrane aliquot corresponding to 40 μg for cerebellar membranes, 60 μg for hippocampal membranes, 80 μg for striatal membranes or 150 μg for cortical membranes. […] After incubation for 30 min at 4° C., the labelled membranes were washed and harvested by rapid vacuum filtration over Whatman GF/C glass-fibre filters using a 40-well filtration manifold and radioactivity collected on the filters was counted as above.
Data analysis was performed using the GraphPad Prism program (GraphPad Prism Software, Inc., San Diego, Calif.). Saturation binding experiments were analysed using a non-linear regression analysis. Inhibition curves were fitted using non-linear regression analysis fitting the one-site competition equation: Y=Bottom+((Top−Bottom)/1+10^X-LogIC50). Ki values were calculated using the Cheng-Prusoff equation: Ki=IC50/[1+([C]/KD)] where C is the concentration of radioligand and KD is the dissociation constant of the radioligand (Cheng and Prusoff, Biochem. Pharmacol. 22, 3099-3108, 1973). The observed on (kob) and off (koff) rate were calculated from association-dissociation curves using the one-phase-exponential association and decay equations in the Prism program, respectively. kon was calculated by subtracting koff from kob and dividing by the radioligand concentration. The two-tailed Student's t-test was used for statistical evaluation of the binding data: * p<0.05, ** p<0.01 and *** p<0.001. The Dunnett's t-test following a 2-way analysis of variance (with as factors compound concentration and experiment) were used to analyse the data from the IP experiments.

rat mGlu5 receptor [1] = target: T1, rat mGlu5 receptor (Rattus norvegicus, UniProt P31424); test: Intracellular Ca2+ response in rat mGlu5 receptor expressing CHO-dhfr− cells (FLIPR); format: cell-based; settings: tested up to a concentration of 10 μM
T1 construct: host or cells: CHO-dhfr- cells
Protocol: L929sA cells stably expressing the human mGlu1a receptor were obtained as described in Lavreysen et al., Mol. Pharmacol. 61:1244-1254, 2002 and were cultured in Glutamax-I medium supplemented with 10% heat inactivated dialysed foetal calf serum, 0.1 mg/ml streptomycin sulphate and 100 units/ml penicillin. CHO-dhfr^− cells stably expressing the rat mGlu1a, -2, -3, -4, -5 and -6 receptor were a kind gift from S. Nakanishi (Tokyo University, Japan) and were grown in DMEM with Glutamax-I with 10% heat inactivated dialysed foetal calf serum, 0.4 mM L-prolin, 0.2 mg/ml streptomycin sulphate and 200 units/ml penicillin. Cells were kept in an atmosphere of 37° C. and 5% CO2.
Intracellular calcium ion levels ([Ca^2+]i) in human mGlu1a receptor expressing L929sA cells were measured using the Fluorometric Imaging Plate Reader (FLIPR, Molecular Devices, CA, USA), as described in Lavreysen et al., Mol. Pharmacol. 61:1244-1254, 2002. The same procedure was followed for CHO-dhfr^− cells expressing the rat mGlu1a receptor. For the rat mGlu5 receptor, cells were seeded at 30.000 cells/well 2 days before the experiment.

AMPA receptor = test: [3H]Ro 48-8587 binding to rat forebrain membranes; settings: [3H]Ro 48-8587, rat forebrain; tested up to 10 μM
Protocol: (§1) Tissue preparation. Male Wistar rats (˜200 g) were sacrificed by decapitation. The brains were rapidly removed and forebrain was dissected. The tissue was homogenized with an Ultra Turrax in 20 volumes of ice-cold H2O and was centrifuged at 48,000 g for 20 min. After homogenisation using a DUAL homogeniser, membranes were washed by centrifugation at 48,000 g for 10 min. The pellet was then suspended in 20 volumes of 50 mM Tris-HCl, pH 7.4 containing 0.04% Triton X-100 and again centrifuged at 48,000 g for 20 min. The final pellet was frozen at −80° C.
(§2) In vitro binding assay. At the day of the experiment, the pellet was thawed, washed and rehomogenised using a DUAL in ice-cold 50 mM Tris-acetate, pH 7.4. Assay conditions for the different radioligands were as follows. The final concentration of membrane in the assay was 20 mg/ml (wet weight) for [^3H]Ro 48-8587 and [^3H]L689560 and was 10 mg/ml (wet weight) for [^3H]CGP39653 and [^3H]MK-801. Radioligand concentrations of 2 nM [^3H]Ro 48-8587, 2 nM [^3H]L689560, 2 nM [^3H]CGP39653 and 3 nM [^3H]MK-801 were used. […] For [^3H]L689560 and [^3H]MK-801 binding, 100 μM D-serine or 10 μM phencyclidine were used to define non-specific binding, respectively. […] Radioactivity collected on the filters was counted as above.

human mGlu1a receptor = target: T2, human mGlu1a receptor (Homo sapiens, UniProt Q13255); test: Intracellular Ca2+ response in human mGlu1a receptor expressing L929sA cells (FLIPR); format: cell-based
T2 construct: expressed in transfected cells; host or cells: L929sA cells

[2] = system: glutamate site of the NMDA receptor; test: [3H]CGP39653 binding to rat forebrain membranes; settings: [3H]CGP39653, rat forebrain; tested up to 10 μM
Protocol: as §1, §2

rat mGlu6 receptor = target: T3, rat mGlu6 receptor (Rattus norvegicus, UniProt P35349); test: [35S]GTPγS binding to membranes from CHO-dhfr− cells expressing the rat mGlu6 receptor; format: biochemical
T3 construct: host or cells: CHO-dhfr- cells
Protocol: (§3) Confluent cells were washed in ice-cold phosphate-buffered saline and stored at −20° C. until membrane preparation. After thawing, cells were suspended in 50 mM Tris-HCl, pH 7.4 and collected through centrifugation for 10 min at 23,500 g at 4° C. The cells were lysed in 10 mM hypotonic Tris-HCl, pH 7.4. After recentrifugation for 20 min at 30,000 g at 4° C., the pellet was homogenized with an Ultra Turrax homogenizer in 50 mM Tris-HCl, pH 7.4. Protein concentrations were measured by the Bio-Rad protein assay using bovine serum albumin as standard.
(§4) Membranes were thawed on ice and diluted in 10 mM HEPES acid, 10 mM HEPES salt, pH 7.4, containing 100 mM NaCl, 3 mM MgCl2, 3 μM GDP and 10 μg/ml saponine. Assay mixtures contained 10 μg of membrane protein and were pre-incubated with compounds or buffer for 5 min at 37° C. […] [^35S]GTPγS was added to a final concentration of 0.1 nM for another 30 min at 37° C. Reactions were terminated by rapid filtration through Unifilter-96 GF/B filter plates (Packard, Meriden, Conn.) using a 96-well Packard filtermate harvester. Filters were washed 2 times with ice-cold 10 mM NaH2PO4/10 mM Na2HPO4 buffer, pH 7.4. Filter-bound radioactivity was counted in a Microplate Scintillation and Luminesence Counter from Packard.

[3] = target: T4, glycine site of the NMDA receptor (Rattus norvegicus, UniProt P35439); test: [3H]L689560 binding to rat forebrain membranes; settings: [3H]L689560, rat forebrain; tested up to 10 μM
T4 construct: from tissue; host or cells: rat forebrain membranes
Protocol: as §1, §2

rat mGlu2 receptor = target: T5, rat mGlu2 receptor (Rattus norvegicus, UniProt P31421); test: [35S]GTPγS binding to membranes from CHO-dhfr− cells expressing the rat mGlu2 receptor; format: biochemical
T5 construct: host or cells: CHO-dhfr- cells
Protocol: as §3, §4

rat mGlu1a receptor [4] = target: T6, rat mGlu1a receptor (Rattus norvegicus, UniProt P23385); test: IP response (basal IP accumulation) in rat mGlu1a receptor expressing CHO-dhfr− cells; format: cell-based
T6 construct: host or cells: CHO-dhfr- cells

rat mGlu1a receptor [5] = target: T6, rat mGlu1a receptor; test: [3H]quisqualate binding to rat mGlu1a receptor CHO-dhfr− membranes (saturation, inhibition)
rat mGlu1a receptor [6] = target: T6, rat mGlu1a receptor; test: Intracellular Ca2+ response in rat mGlu1a receptor expressing CHO-dhfr− cells (FLIPR); format: cell-based; settings: for IC50: read-out: IC50, inhibition of the glutamate-induced increase in [Ca2+]i
rat mGlu4 receptor = target: T7, rat mGlu4 receptor (Rattus norvegicus, UniProt P31423); test: [35S]GTPγS binding to membranes from CHO-dhfr− cells expressing the rat mGlu4 receptor; format: biochemical
T7 construct: host or cells: CHO-dhfr- cells
Protocol: as §3, §4

rat mGlu3 receptor = target: T8, rat mGlu3 receptor (Rattus norvegicus, UniProt P31422); test: [35S]GTPγS binding to membranes from CHO-dhfr− cells expressing the rat mGlu3 receptor; format: biochemical
T8 construct: host or cells: CHO-dhfr- cells
Protocol: as §3, §4

rat mGlu1a receptor [7] = target: T6, rat mGlu1a receptor; test: [3H]Compound A binding to rat mGlu1a receptor CHO-dhfr− membranes (saturation, kinetics, inhibition); settings: for Ki: 2.5 nM [3H]Compound A, 30 min at 4° C.; for inhibition of [3H]Compound A binding (in words): rat mGlu1a receptor CHO-dhfr− membranes
rat mGlu5 receptor [8] = target: T1, rat mGlu5 receptor; test: [3H]MPEP binding to rat mGlu5 receptor CHO-dhfr− membranes; settings: rat mGlu5 receptor containing membranes; positive control
[9] = read-out: IC50 for inhibition of glutamate-induced [35S]GTPγS activation
[10] = ratio of IC50 values, rat mGlu1a Ca2+ assay
[11] = inhibition of [3H]quisqualate binding, rat mGlu1a receptor CHO-dhfr− membranes, mean ± SD of 2 experiments

T5 sequence (P31421 19-872): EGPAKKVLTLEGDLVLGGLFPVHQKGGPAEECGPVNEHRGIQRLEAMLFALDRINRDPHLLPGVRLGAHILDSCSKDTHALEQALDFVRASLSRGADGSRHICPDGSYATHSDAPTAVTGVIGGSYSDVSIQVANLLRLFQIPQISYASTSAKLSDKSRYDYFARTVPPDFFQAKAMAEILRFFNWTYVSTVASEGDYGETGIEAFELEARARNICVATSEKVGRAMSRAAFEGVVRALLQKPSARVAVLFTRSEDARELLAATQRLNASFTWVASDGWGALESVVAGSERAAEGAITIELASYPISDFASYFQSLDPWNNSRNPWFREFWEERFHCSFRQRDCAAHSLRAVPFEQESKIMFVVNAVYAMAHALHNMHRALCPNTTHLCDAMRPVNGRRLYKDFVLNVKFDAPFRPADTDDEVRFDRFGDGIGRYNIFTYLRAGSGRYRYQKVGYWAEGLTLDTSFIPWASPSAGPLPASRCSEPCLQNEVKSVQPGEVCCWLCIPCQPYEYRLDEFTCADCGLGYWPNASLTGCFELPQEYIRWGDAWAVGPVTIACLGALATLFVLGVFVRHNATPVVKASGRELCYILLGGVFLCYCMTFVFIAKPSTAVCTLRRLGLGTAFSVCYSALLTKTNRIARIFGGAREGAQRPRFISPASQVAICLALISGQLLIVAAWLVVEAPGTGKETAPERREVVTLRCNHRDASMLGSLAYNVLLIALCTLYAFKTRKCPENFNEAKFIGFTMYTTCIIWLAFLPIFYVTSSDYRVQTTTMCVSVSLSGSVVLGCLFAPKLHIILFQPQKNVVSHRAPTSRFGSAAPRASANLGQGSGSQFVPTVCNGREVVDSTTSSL
T7 sequence (P31423 33-912): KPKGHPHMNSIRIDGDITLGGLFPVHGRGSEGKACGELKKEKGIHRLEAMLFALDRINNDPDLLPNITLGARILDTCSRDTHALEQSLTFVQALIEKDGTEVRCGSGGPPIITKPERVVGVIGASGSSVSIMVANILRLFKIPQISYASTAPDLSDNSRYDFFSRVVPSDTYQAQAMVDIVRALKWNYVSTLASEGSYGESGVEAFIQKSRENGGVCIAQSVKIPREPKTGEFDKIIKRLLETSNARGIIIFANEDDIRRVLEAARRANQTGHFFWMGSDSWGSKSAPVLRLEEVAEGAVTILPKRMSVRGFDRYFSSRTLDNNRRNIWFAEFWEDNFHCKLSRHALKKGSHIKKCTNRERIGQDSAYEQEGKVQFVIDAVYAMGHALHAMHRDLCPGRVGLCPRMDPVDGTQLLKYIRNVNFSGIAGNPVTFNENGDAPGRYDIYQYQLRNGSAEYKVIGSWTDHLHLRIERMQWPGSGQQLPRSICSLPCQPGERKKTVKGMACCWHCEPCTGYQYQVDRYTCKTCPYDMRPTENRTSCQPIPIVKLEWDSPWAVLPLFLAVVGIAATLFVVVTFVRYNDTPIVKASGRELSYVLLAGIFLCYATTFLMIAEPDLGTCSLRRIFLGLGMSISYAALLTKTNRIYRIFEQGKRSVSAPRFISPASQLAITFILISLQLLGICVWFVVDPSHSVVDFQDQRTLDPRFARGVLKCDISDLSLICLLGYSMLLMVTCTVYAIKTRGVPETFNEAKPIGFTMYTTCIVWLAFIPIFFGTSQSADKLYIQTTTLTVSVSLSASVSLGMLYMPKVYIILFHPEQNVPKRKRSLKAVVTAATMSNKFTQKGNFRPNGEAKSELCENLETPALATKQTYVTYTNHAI
T3 sequence (P35349 24-871): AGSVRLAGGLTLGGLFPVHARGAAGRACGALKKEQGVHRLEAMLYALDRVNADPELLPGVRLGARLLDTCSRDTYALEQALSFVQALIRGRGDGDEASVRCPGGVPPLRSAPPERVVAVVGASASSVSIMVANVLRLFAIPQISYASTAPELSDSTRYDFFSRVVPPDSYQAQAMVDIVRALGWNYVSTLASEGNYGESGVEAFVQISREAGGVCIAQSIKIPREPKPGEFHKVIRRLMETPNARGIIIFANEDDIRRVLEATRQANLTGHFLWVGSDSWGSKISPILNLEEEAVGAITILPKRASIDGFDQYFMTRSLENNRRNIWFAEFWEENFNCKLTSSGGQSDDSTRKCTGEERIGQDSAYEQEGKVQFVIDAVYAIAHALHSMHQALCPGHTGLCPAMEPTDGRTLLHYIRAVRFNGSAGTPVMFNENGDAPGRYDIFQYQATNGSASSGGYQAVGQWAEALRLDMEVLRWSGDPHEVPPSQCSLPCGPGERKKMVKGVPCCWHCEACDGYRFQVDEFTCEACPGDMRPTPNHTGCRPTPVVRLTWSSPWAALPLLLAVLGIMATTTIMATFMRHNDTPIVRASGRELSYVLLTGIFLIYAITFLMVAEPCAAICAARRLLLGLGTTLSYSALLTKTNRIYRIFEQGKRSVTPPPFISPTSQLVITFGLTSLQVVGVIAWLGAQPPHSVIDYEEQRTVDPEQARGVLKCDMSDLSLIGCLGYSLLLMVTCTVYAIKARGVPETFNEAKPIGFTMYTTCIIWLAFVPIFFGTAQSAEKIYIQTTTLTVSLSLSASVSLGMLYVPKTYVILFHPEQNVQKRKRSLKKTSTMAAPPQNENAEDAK
T8 sequence (P31422 23-879): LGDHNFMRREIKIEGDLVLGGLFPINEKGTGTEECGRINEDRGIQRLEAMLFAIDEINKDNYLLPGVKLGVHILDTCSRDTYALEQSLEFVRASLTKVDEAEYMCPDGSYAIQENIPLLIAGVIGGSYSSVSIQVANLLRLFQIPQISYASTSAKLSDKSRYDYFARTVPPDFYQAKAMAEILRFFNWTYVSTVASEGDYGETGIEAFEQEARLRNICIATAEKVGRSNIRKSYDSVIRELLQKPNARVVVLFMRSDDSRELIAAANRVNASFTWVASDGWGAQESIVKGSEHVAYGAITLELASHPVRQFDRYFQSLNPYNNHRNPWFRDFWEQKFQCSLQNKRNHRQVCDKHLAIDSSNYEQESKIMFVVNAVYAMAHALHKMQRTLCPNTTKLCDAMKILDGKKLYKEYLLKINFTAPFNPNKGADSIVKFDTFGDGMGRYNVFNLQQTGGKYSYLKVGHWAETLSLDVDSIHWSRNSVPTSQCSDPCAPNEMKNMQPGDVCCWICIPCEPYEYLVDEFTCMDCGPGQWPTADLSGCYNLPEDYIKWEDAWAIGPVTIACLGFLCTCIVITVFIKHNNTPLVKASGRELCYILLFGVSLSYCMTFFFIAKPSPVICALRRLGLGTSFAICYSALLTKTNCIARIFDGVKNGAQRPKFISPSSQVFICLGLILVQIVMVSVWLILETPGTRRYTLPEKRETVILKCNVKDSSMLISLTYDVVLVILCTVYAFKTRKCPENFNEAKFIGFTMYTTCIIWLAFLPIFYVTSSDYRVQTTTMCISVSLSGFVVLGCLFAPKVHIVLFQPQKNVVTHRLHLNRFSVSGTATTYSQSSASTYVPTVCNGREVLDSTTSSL
T6 sequence (P23385 19-1199): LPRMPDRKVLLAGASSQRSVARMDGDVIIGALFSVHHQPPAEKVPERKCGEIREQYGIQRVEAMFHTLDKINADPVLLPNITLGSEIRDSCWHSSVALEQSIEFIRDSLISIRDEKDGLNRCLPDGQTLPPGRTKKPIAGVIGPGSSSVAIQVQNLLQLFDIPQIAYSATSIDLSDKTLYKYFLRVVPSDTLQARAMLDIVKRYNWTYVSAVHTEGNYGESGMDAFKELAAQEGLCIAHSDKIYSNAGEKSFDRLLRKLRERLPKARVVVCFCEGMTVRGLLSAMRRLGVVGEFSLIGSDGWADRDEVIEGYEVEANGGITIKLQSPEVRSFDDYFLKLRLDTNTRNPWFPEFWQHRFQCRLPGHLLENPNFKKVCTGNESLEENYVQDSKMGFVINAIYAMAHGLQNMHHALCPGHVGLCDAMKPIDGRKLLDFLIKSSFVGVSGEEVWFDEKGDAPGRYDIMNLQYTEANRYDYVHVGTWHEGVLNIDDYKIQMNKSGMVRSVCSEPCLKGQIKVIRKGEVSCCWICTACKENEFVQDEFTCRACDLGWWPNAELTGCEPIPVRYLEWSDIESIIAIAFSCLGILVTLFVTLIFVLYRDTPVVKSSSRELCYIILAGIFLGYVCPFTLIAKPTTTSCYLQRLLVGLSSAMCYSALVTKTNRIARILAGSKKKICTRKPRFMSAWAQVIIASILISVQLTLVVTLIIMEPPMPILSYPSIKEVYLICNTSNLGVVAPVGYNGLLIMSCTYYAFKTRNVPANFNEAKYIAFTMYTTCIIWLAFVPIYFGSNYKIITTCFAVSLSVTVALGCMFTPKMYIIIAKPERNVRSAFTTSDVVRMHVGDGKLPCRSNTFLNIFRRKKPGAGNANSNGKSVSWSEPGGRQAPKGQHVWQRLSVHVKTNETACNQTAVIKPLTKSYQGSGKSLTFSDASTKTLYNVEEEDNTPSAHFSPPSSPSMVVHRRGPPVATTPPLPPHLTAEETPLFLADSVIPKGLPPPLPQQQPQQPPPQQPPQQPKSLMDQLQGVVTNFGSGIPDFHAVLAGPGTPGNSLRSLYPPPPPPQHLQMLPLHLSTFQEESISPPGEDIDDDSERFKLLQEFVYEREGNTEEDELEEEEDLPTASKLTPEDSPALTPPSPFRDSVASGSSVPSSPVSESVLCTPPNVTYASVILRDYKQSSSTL

effect on [3H]Compound A binding to rat cerebellar membranes (mGlu1 receptor): did not affect
SMILES: Cc1cccc(C#Cc2ccccc2)n1 [MPEP, reference compound]

specific binding (rat mGlu5 receptor [8]): 95%
SMILES: Cc1cccc(C#Cc2ccccc2)n1 [[^3H]MPEP]

Continued, compound first:

SMILES: O=C(Cc1ccccc1)c1ccc2nc3c(cc2c1)CCCO3 [Compound A]
inhibition of glutamate-induced Ca2+ signaling (rat mGlu5 receptor [1]): did not inhibit
binding to the AMPA receptor (AMPA receptor): did not bind
IC50 (human mGlu1a receptor): 0.0104 ± 0.0047 µM
binding to the glutamate site of the NMDA receptor [2]: nor did it bind
glutamate Emax upon addition of compound (positive allosteric modulation) (rat mGlu6 receptor; 10 μM compound together with glutamate, rat mGlu6): not increased
IC50 (rat mGlu6 receptor; [9]): > 30 µM
agonist activity in [35S]GTPγS assay (rat mGlu6 receptor; up to 30 μM, rat mGlu6): did not exhibit agonist activity
binding to the glycine site of the NMDA receptor [3]: nor did it bind
glutamate Emax upon addition of compound (positive allosteric modulation) (rat mGlu2 receptor; 10 μM compound together with glutamate, rat mGlu2): not increased
IC50 (rat mGlu2 receptor; [9]): > 30 µM
agonist activity in [35S]GTPγS assay (rat mGlu2 receptor; up to 30 μM, rat mGlu2): did not exhibit agonist activity
decrease of basal IP accumulation (rat mGlu1a receptor [4]; 1 μM compound, p<0.05): 24±4%
maximal decrease of basal IP accumulation (rat mGlu1a receptor [4]; 100 μM compound): 33±3%
Ki (rat mGlu1a receptor [5]): > 1000 µM
effect on [3H]quisqualate binding (in words) (rat mGlu1a receptor [5]; rat mGlu1a receptor CHO-dhfr− membranes): did not displace
mode of antagonism (rat mGlu1a receptor [6]; glutamate concentration-response curve in absence and presence of compound (FIG. 1B)): non-competitive
inhibition of mGlu1a receptor-mediated signalling (rat mGlu1a receptor [6]; in the presence of 100 nM-1 μM compound): Complete inhibition
times more potent than BAY 36-7620 (rat mGlu1a receptor [6]; [10]): about 8 times
times more potent than CPCCOEt (rat mGlu1a receptor [6]; [10]): ~500 times
IC50 (rat mGlu1a receptor [6]): 0.0216 ± 0.005 µM
glutamate Emax upon addition of compound (positive allosteric modulation) (rat mGlu4 receptor; 10 μM compound together with glutamate, rat mGlu4): not increased
IC50 (rat mGlu4 receptor; [9]): > 30 µM
agonist activity in [35S]GTPγS assay (rat mGlu4 receptor; up to 30 μM, rat mGlu4): did not exhibit agonist activity
glutamate Emax upon addition of compound (positive allosteric modulation) (rat mGlu3 receptor; 10 μM compound together with glutamate, rat mGlu3): not increased
IC50 (rat mGlu3 receptor; [9]): > 30 µM
agonist activity in [35S]GTPγS assay (rat mGlu3 receptor; up to 30 μM, rat mGlu3): did not exhibit agonist activity
Ki (rat mGlu1a receptor [7]; mean ± SD of 3–4 experiments): 1.35 ± 0.99 nM
Hill coefficient (rat mGlu1a receptor [7]; inhibition of [3H]Compound A-binding, mean ± SD of 3–4 experiments): 0.94 ± 0.04

SMILES: CCOC(=O)[C@]12CC1/C(=N\O)c1ccccc1O2 (mixture of isomers) [CPCCOEt, reference compound]
Ki (rat mGlu1a receptor [5]): > 1000 µM
IC50 (rat mGlu1a receptor [6]; CHO-dhfr− cells expressing rat mGlu1a, same assay): 10.3 ± 0.8 µM
Ki (rat mGlu1a receptor [7]; mean ± SD of 3–4 experiments): 4900 nM

SMILES: N[C@H](C(=O)O)c1cc(O)cc(O)c1 [(S)-3,5-DHPG, reference compound]
Hill coefficient (rat mGlu1a receptor [5]; [11]): 0.97 ± 0.00
Ki (rat mGlu1a receptor [5]; [11]): 1.42 µM
Ki (rat mGlu1a receptor [7]; mean ± SD of 3–4 experiments): > 1e+06 nM
inhibition of [3H]Compound A binding (in words) (rat mGlu1a receptor [7]): did not inhibit

SMILES: N[C@@]1(C(=O)O)CC[C@@H](C(=O)O)C1 [1S,3R-ACPD, reference compound]
Hill coefficient (rat mGlu1a receptor [5]; [11]): 0.97 ± 0.01
inhibition of [3H]Compound A binding (in words) (rat mGlu1a receptor [7]): did not inhibit

Source: US7517517B2 (Janssen Pharmaceutica N.V., priority 2002, dated 2009)
